[ ]: non-standard residue; d: D form. Abu = CC[C@H](N)C(=O)O; Ahx = NCCCCCC(=O)O

For one data set, the system named is human MDSCs. The experiment in a line: Binding of 4PD/Alexa555-shRNA complexes to PBMCs from HNSCC patients by FACS. It is filed as cell-based. Particulars: 30 minutes at 4° C. Here is the method: Transfection was evaluated by FACS. In FIG. 6A, the red dot represent the cells transfected with the 4PD nanoparticles (i.e., CD33+IL4Rα+CD11b+CD14+HLADRlow monocytes/MDSC). FIG. 6B depicts the Alexa555 fluorescence in the indicated gates. In FIG. 6C, apparent Kd was calculated by incubating a fixed number of PBMCs with the indicated concentration of Alexa555shRNA/4PD complexes for 10 minutes at 4° C. and by evaluating the MFI in the relevant channel by FACS.
Next, the ability of 4PD to bind to the native IL4Rα receptor expressed on a cell membrane was evaluated. To this aim, the capacity of 4PD to recognize CD11b+myeloid cells isolated from tumor bearing mice was evaluated. Briefly, CD11b+MDSC were magnetically isolated from the spleen of Balb/c mice challenged 2 weeks before with the CT26 colon carcinoma. Purified cells were incubated at 37° C. for 15 minutes with Alexa555-shRNA loaded onto 4PD or dendrimers conjugated with scramble peptide as negative control. […] Cells were harvested and analyzed by FACS (FIG. 5B) or by fluorescence microscopy (FIG. 5C) to determine Alexa-555-shRNA transfection. […] Similarly (FIG. 6B), Alexa555 fluorescence can be found only on CD33+IL4Rα+ MDSCs (black histogram) but not in other subsets as the IL4Rα-CD33+ myeloid cells (purple) or the non-myeloid (CD33-IL4Rα−) cells. […]

The next data set has as its system CD11b+MDSC. As to the kind of experiment: Alexa555-shRNA transfection of CD11b+ MDSC from CT26 tumor bearing mice (FACS, fluorescence microscopy). Type of data set: cell-based, mouse. Particulars: 15 minutes at 37° C., then 2 hours; FACS and fluorescence microscopy. The method, then: MDSC isolated from CT26 tumor bearing mice were transfected with: 1) Alexa555-siRNA alone (gray filled line in FIGS. 5A and 5B), 2) Alexa555-siRNA Dendrimer (black line, bottom panel, FIG. 5B) or 3) Alexa555-siRNA IL4Rα targeting dendrimer (black line, top panel, FIG. 5A). 45 minutes later cells were analyzed by immune-fluorescence microscopy (FIG. 5C) and by FACS (FIG. 5B) after gating on the alive (DAPI negative) cells.
Next, the ability of 4PD to bind to the native IL4Rα receptor expressed on a cell membrane was evaluated. To this aim, the capacity of 4PD to recognize CD11b+myeloid cells isolated from tumor bearing mice was evaluated. Briefly, CD11b+MDSC were magnetically isolated from the spleen of Balb/c mice challenged 2 weeks before with the CT26 colon carcinoma. Purified cells were incubated at 37° C. for 15 minutes with Alexa555-shRNA loaded onto 4PD or dendrimers conjugated with scramble peptide as negative control. After the incubation, cells were washed and incubated for an additional 2 hours at 37° C. in CTL media. Cells were harvested and analyzed by FACS (FIG. 5B) or by fluorescence microscopy (FIG. 5C) to determine Alexa-555-shRNA transfection. […] Similarly (FIG. 6B), Alexa555 fluorescence can be found only on CD33+IL4Rα+ MDSCs (black histogram) but not in other subsets as the IL4Rα-CD33+ myeloid cells (purple) or the non-myeloid (CD33-IL4Rα−) cells.

A further data set concerns MDSC and macrophages. As to the kind of experiment: In vivo specificity of 4PD in CT26 bearing mice (multicolor flow cytometry of tumor, spleen, liver). Details: species or system mouse. Particulars: for Alexa555-shRNA accumulation in cell subsets: with cardiolipin. Here is the method:
Mice bearing the CT26 colon carcinoma (0.7 cm in diameter) were injected with Alexa555-siRNA loaded onto 4PD (black bar) or, as control, onto G5 PAMAM dendrimer functionalized with a random peptide. Two hours later, mice were sacrificed. Single cell suspensions from the spleen, the tumor and the liver were labeled with antibodies specific for Gr1, CD11b, F4/80, CD11c, CD3, CD4, and CD8 to identify granulocytic MDSC (gMDSC), monocytic MDSC (mMDSC), macrophages, dendritic cells, and helper and cytotoxic T cell. Fluorescence in the Alexa555 channel in each population was evaluated by FACSas a read out of 4PD mediated transfection.
In order to evaluate 4PD specificity in vivo, Balb/c mice bearing the CT26 colon carcinoma were injected intravenously with 20 ug of Alexa555-shRNA loaded into the 4PD platform with cardiolipin. Alexa 555-shRNA loaded dendrimer coupled with control peptide (a mixture of random peptides) were used as control. Cardiolipin was added to the complexes as described above (FIG. 3). Two hours after 4PD/Alexa555-shRNA systemic injection, mice were sacrificed and single cell suspension from the tumor, the spleen, and the liver was analyzed by multicolor flow cytometry (FIG. 10). In particular, cells were stained with CD11b, Gr1, CD11c and F4/80 specific antibodies to identify granulocytic− (g−) MDSCs (CD11bGr1high), monocytic− (m−) MDSCs (CD11b+GR1−), CD11b+Gr-1 negative myeloid cells, F4/80+macrophages, and CD11chigh DC. Additionally, cells were stained with antibodies specific for CD3, CD8, and CD4 to recognize T cell subsets.
(In general: A flow cytometer gives signals particle by particle.)

Data set [1] relates to Bone marrow cells from C57Bl/6 mice. The experiment in a line: Transfection of early hematopoietic progenitor cells from bone marrow (flow cytometry). It is filed as cell-based, mouse. The method, then:
FIG. 24B provides histograms that how the binding of 4PD (open histogram) over the control (filled histogram). The dot blot on the right summarize the binding from ten independent assays.
Bone marrow cells from C57Bl/6 mice were incubated for 10 minutes with 4PD loaded with Alexafluor 555 washed, counterstained with anti-lineage cocktail, anti-CD45, anti-Sca1, anti ckit, anti-CD34, anti-CD16/CD32, anti-CD150 and anti-CD48 antibodies, and analyzed by flow cytometry.
Importantly, the viability of the cells after transfection was higher than 95%.

For “4PD: G5 PAMAM dendrimer conjugated by maleidoamide chemistry to the IL4Rα targeting peptide of SEQ ID NO: 1 (Ac-LQRLFRAFR[Abu]LD[Ahx]C-NH2; also: Cys14 joined by maleimidobenzoyl thioether to G5 PAMAM dendrimer)”, the “cells bound by 4PD among PBMCs” value with human MDSCs was “binds preferentially to CD11b+CD14+CD33+IL4Rα+HLADRdim cells”. Further, the Alexa-555-shRNA transfection entry with CD11b+MDSC is “can promote the internalization of Alexa-555 in the cells”. Also, the Alexa555-shRNA binding entry in the data set on MDSC and macrophages (non-myeloid leukocytes subsets, 2 hours after i.v. injection) is given as “Only non-specific level of binding was observed”. Further, the “Alexa555-shRNA accumulation in cell subsets” value in the data set with MDSC and macrophages (spleen and liver, 2 hours after i.v. injection) is “accumulates mostly in F4/80+ tumor educated macrophages, and CD11b+GR1− myeloid cells”; in the data set on MDSC and macrophages (tumor, 2 hours after i.v. injection of 20 ug Alexa555-shRNA) it was “accumulates mostly in the tumor associated gMDSCs, mMDSC, macrophages and CD11b+Gr1− myeloid cells”. The transfection entry in data set [1] (HSC, HPC1, HPC2, MPP, CMP, GMP, 10 minutes incubation) is recorded as “able to efficiently transfect”; in data set [1] (megakariocytes-erythrocyte precursors) it was “at lower level”. In data set [1] (bone marrow cells), the “viability of the cells after transfection” value was “higher than 95%”.

(Values after patent US11364305B2, “Nanoparticle conjugates and uses thereof” (UNIVERSITY OF MIAMI, priority 2015, dated 2022).)
